For 26 compounds, IC50 results are on record in patent US9062056B2, “Aza-benzimidazolone Chymase inhibitors” (Boehringer Ingelheim International GmbH, priority 2008, dated 2015).

Structures are written as SMILES.

The target of the assay is T1, Chymase (Homo sapiens, UniProt P23946).
T1 sequence (P23946 22-247): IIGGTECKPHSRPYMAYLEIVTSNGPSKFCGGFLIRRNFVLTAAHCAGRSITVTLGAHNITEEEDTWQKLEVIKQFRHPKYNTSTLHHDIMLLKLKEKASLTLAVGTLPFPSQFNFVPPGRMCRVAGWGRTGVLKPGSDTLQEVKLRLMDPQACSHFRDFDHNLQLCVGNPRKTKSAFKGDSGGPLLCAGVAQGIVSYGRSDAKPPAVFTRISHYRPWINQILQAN
Description: In vitro assay for inhibition of Chymase (rhodamine 110 peptide substrate, fluorescence). It is filed as biochemical. The note with it: 500 pM chymase, 100 nM substrate, 100 μM TCEP, 1% DMSO, 28° C., 1 hour. Here is the method: IN VITRO ASSAY FOR INHIBITION OF CHYMASE
Chymase assays were performed in a total volume of 15 μL in Corning black opaque 384-well microtiter plates with a non-binding surface (Corning, N.Y.). The assay buffer was comprised of 20 mM Tris HCl pH 8.0, 50 mM NaCl, 0.01% CHAPS. The test compounds were serially diluted 3-fold with neat DMSO in a 96-well polypropylene plate from a 10 mM DMSO stock to give the 10 point dose response curve. 3 μL of the resulting DMSO solution were transferred to a 384-well polypropylene plate in duplicate, and 37 μL of assay buffer was added. Chymase was added to the assay plate in 3 uL of assay buffer followed by 2 uL of the appropriate compound dilution using a PlateMate Plus (Matrix Technologies Corp., Hudson, N.H.). The reaction was initiated by the addition of 10 uL rhodamine 110, bis-(succinoyl-L-alanyl-L-alanyl-L-prolyl-L-phenylalanylamide) (American Peptides, Sunnyvale, Calif.) in assay buffer containing 150 μM tris(2-carboxyethyl)phosphine (TCEP, Pierce Chemical, Rockford, Ill.) using a Multidrop (Thermo Electron Corp., Waltham, Mass.). Final assay concentrations were 500 pM chymase, 100 nM substrate, 100 μM TCEP, and 1% DMSO. The plates were incubated at 28° C. and 80% humidity for 1 hour, at which time the fluorescence was read on a Viewlux 1430 Microplate Imager (Perkin Elmer Life Sciences, Boston, Mass.) with 485 nm excitation, 530 nm emission, and a fluorescein dichroic mirror. The percentage of control values were calculated relative to assay blanks containing complete reaction minus chymase and a 100% control containing assay buffer with 1% DMSO in place of compound. IC50 values were obtained by fitting the data using XLFit4 (IDBS Software).
The compound `CCC[C@@H](CC(=O)NS(=O)(=O)c1cn(C)cn1)n1c(=O)n(Cc2cn(C)c3cccc(C)c23)c2cccnc21` [1-Methyl-1H-imidazole-4-sulfonic acid {(S)-3-[1-(1,4-dimethyl-1H-indol-3-ylmethyl)-2-oxo-1,2-dihydro-imidazo[4,5-b]pyridin-3-yl]-hexanoyl}-amide] came in with an IC50 of 6.71 nM.

In turn, `Cc1cc(C)c2c(Cn3c(=O)n(CC4(C(=O)O)CCCCC4)c4nc(C)ccc43)nsc2c1` [1-[1-(4,6-Dimethyl-1,2-benzisothiazol-3-ylmethyl)-5-methyl-2-oxo-1,2-dihydro-imidazo[4,5-b]pyridin-3-ylmethyl]-cyclohexanecarboxylic acid] registered a concentration for half-maximal inhibition (IC50) of 1.45 nM.

For the compound `CCC[C@@H](CC(=O)NS(=O)(=O)C(C)(C)C)n1c(=O)n(Cc2cn(C)c3cccc(C)c23)c2cccnc21` [2-Methyl-propane-2-sulfonic acid {(S)-3-[1-(1,4-dimethyl-1H-indol-3-ylmethyl)-2-oxo-1,2-dihydro-imidazo[4,5-b]pyridin-3-yl]-hexanoyl}-amide], it took 1 nM to reach half-maximal inhibition (IC50).

Regarding `CCCC(Cn1c(=O)n(Cc2cn(C)c3cccc(C)c23)c2cccnc21)C(=O)O` (centres unmarked) [2-[1-(1,4-Dimethyl-1H-indol-3-ylmethyl)-2-oxo-1,2-dihydro-imidazo[4,5-b]pyridin-3-ylmethyl]-pentanoic acid], the concentration for half-maximal inhibition (IC50) came to 3 nM.

`CCCC(CC(=O)O)n1c(=O)n(Cc2cn(C)c3cc(C)cc(C)c23)c2ccc(C(N)=O)nc21` (centres unmarked) [3-[5-Carbamoyl-2-oxo-1-(1,4,6-trimethyl-1H-indol-3-ylmethyl)-1,2-dihydro-imidazo[4,5-b]pyridin-3-yl]-hexanoic acid] came in with an IC50 of 1.93 nM.

Regarding `CCCC(CC(=O)O)n1c(=O)n(Cc2cn(C)c3cccc(C)c23)c2ccc(C#N)nc21` (centres unmarked) [3-[5-Cyano-1-(1,4-dimethyl-1H-indol-3-ylmethyl)-2-oxo-1,2-dihydro-imidazo[4,5-b]pyridin-3-yl]-hexanoic acid], the IC50 worked out at 2.2 nM.

The compound `CCCC(CC(=O)O)n1c(=O)n(Cc2cn(C)c3cc(C)cc(C)c23)c2ccc(C#N)nc21` (centres unmarked) [3-[5-Cyano-2-oxo-1-(1,4,6-trimethyl-1H-indol-3-ylmethyl)-1,2-dihydro-imidazo[4,5-b]pyridin-3-yl]-hexanoic acid] displayed an IC50 of 1.06 nM.

In turn, `Cc1ccc2c(n1)n([C@H](CC(=O)O)c1cccc(Cl)c1)c(=O)n2Cc1cn(C)c2cccc(C)c12` [(R)-3-(3-Chloro-phenyl)-3-[1-(1,4-dimethyl-1H-indol-3-ylmethyl)-5-methyl-2-oxo-1,2-dihydro-imidazo[4,5-b]pyridin-3-yl]-propionic acid] returned an IC50 of 7.07 nM.

The compound `Cc1cc(C)c2c(Cn3c(=O)n([C@H](CC(=O)O)c4cccc(Cl)c4)c4nc(C)ccc43)nsc2c1` [(R)-3-(3-Chloro-phenyl)-3-[1-(4,6-dimethyl-1,2-benzisothiazol-3-ylmethyl)-5-methyl-2-oxo-1,2-dihydro-imidazo[4,5-b]pyridin-3-yl]-propionic acid] gave a half-maximal inhibitory concentration (IC50) of 6.26 nM.

For `Cc1ccc2c(n1)n([C@H](CC(=O)O)c1ccc(Cl)cc1)c(=O)n2Cc1cn(C)c2cccc(C)c12` [(R)-3-(4-Chloro-phenyl)-3-[1-(1,4-dimethyl-1H-indol-3-ylmethyl)-5-methyl-2-oxo-1,2-dihydro-imidazo[4,5-b]pyridin-3-yl]-propionic acid], the IC50 was 0.255 nM.

Compound `Cc1cc(C)c2c(Cn3c(=O)n([C@H](CC(=O)O)c4ccc(Cl)cc4)c4nc(C)ccc43)nsc2c1` [(R)-3-(4-Chloro-phenyl)-3-[1-(4,6-dimethyl-1,2-benzisothiazol-3-ylmethyl)-5-methyl-2-oxo-1,2-dihydro-imidazo[4,5-b]pyridin-3-yl]-propionic acid] displayed an IC50 of 0.624 nM.

Turning to `Cc1cccc2c1c(Cn1c(=O)n([C@H](CC(=O)O)c3ccc(Cl)cc3)c3nc(C#N)ccc31)cn2C` [(R)-3-(4-Chloro-phenyl)-3-[5-cyano-1-(1,4-dimethyl-1H-indol-3-ylmethyl)-2-oxo-1,2-dihydro-imidazo[4,5-b]pyridin-3-yl]-propionic acid], the IC50 is 0.165 nM.

Compound `Cc1cc(C)c2c(Cn3c(=O)n([C@H](CC(=O)O)c4ccc(Cl)cc4)c4nc(C#N)ccc43)cn(C)c2c1` [(R)-3-(4-Chloro-phenyl)-3-[5-cyano-2-oxo-1-(1,4,6-trimethyl-1H-indol-3-ylmethyl)-1,2-dihydro-imidazo[4,5-b]pyridin-3-yl]-propionic acid] gave an IC50 of 0.2 nM.

`Cc1cc(C)c2c(Cn3c(=O)n([C@H](CC(=O)O)c4ccc(Cl)cc4)c4nc(C)ccc43)cn(C)c2c1` [(R)-3-(4-Chloro-phenyl)-3-[5-methyl-2-oxo-1-(1,4,6-trimethyl-1H-indol-3-ylmethyl)-1,2-dihydro-imidazo[4,5-b]pyridin-3-yl]-propionic acid]: inhibition was half-maximal at 0.2 nM (IC50).

In the case of `Cc1cccc2c1c(Cn1c(=O)n([C@H](CC(=O)O)c3ccccc3)c3ncccc31)cn2C` [(R)-3-[1-(1,4-Dimethyl-1H-indol-3-ylmethyl)-2-oxo-1,2-dihydro-imidazo[4,5-b]pyridin-3-yl]-3-phenyl-propionic acid], the 50% inhibitory concentration (IC50) is 2.21 nM.

`COc1ccc2c(n1)n([C@H](CC(=O)O)c1ccccc1)c(=O)n2Cc1cn(C)c2cccc(C)c12` [(R)-3-[1-(1,4-Dimethyl-1H-indol-3-ylmethyl)-5-methoxy-2-oxo-1,2-dihydro-imidazo[4,5-b]pyridin-3-yl]-3-phenyl-propionic acid] yielded an IC50 of 2.05 nM.

With `COc1ccc([C@@H](CC(=O)O)n2c(=O)n(Cc3cn(C)c4cccc(C)c34)c3ccc(C)nc32)cc1` [(R)-3-[1-(1,4-Dimethyl-1H-indol-3-ylmethyl)-5-methyl-2-oxo-1,2-dihydro-imidazo[4,5-b]pyridin-3-yl]-3-(4-methoxy-phenyl)-propionic acid], the half-maximal inhibitory concentration (IC50) stood at 0.455 nM.

`Cc1ccc2c(n1)n([C@H](CC(=O)O)c1ccccc1)c(=O)n2Cc1cn(C)c2cccc(C)c12` [(R)-3-[1-(1,4-Dimethyl-1H-indol-3-ylmethyl)-5-methyl-2-oxo-1,2-dihydro-imidazo[4,5-b]pyridin-3-yl]-3-phenyl-propionic acid] returned a concentration for half-maximal inhibition (IC50) of 2.52 nM.

Consider `Cc1ccc2c(n1)n([C@H](CC(=O)O)c1cccnc1)c(=O)n2Cc1cn(C)c2cccc(C)c12` [(R)-3-[1-(1,4-Dimethyl-1H-indol-3-ylmethyl)-5-methyl-2-oxo-1,2-dihydro-imidazo[4,5-b]pyridin-3-yl]-3-pyridin-3-yl-propionic acid], for which the IC50 is 10.7 nM.

With `Cc1cc(C)c2c(Cn3c(=O)n([C@H](CC(=O)O)c4ccccc4)c4ncccc43)nsc2c1` [(R)-3-[1-(4,6-Dimethyl-benzo[d]isothiazol-3-ylmethyl)-2-oxo-1,2-dihydro-imidazo[4,5-b]pyridin-3-yl]-3-phenyl-propionic acid], the 50% inhibitory concentration (IC50) is 4.23 nM.

The compound `Cc1cccc2c1c(Cn1c(=O)n([C@H](CC(=O)O)c3ccccc3)c3nc(C4CC4)ncc31)cn2C` [(R)-3-[2-Cyclopropyl-7-(1,4-dimethyl-1H-indol-3-ylmethyl)-8-oxo-7,8-dihydro-purin-9-yl]-3-phenyl-propionic acid] displayed a half-inhibitory concentration (IC50) of 5 nM.

`Cc1cc(C)c2c(Cn3c(=O)n([C@H](CC(=O)O)c4ccccc4)c4ncccc43)cn(C)c2c1` [(R)-3-[2-Oxo-1-(1,4,6-trimethyl-1H-indol-3-ylmethyl)-1,2-dihydro-imidazo[4,5-b]pyridin-3-yl]-3-phenyl-propionic acid] had a 50% inhibitory concentration (IC50) of 0.61 nM.

Consider `Cc1cccc2c1c(Cn1c(=O)n([C@H](CC(=O)O)c3ccccc3)c3ccncc31)cn2C` [(R)-3-[3-(1,4-Dimethyl-1H-indol-3-ylmethyl)-2-oxo-2,3-dihydro-imidazo[4,5-c]pyridin-1-yl]-3-phenyl-propionic acid], for which inhibition was half-maximal at 3.91 nM (IC50).

`Cc1cc2c(cn1)n(Cc1cn(C)c3cccc(C)c13)c(=O)n2[C@H](CC(=O)O)c1ccccc1` [(R)-3-[3-(1,4-Dimethyl-1H-indol-3-ylmethyl)-6-methyl-2-oxo-2,3-dihydro-imidazo[4,5-c]pyridin-1-yl]-3-phenyl-propionic acid] registered an IC50 of 2.62 nM.

On to `Cc1cc(C)c2c(Cn3c(=O)n([C@H](CC(=O)O)c4ccccc4)c4cc(C)ncc43)nsc2c1` [(R)-3-[3-(4,6-Dimethyl-1,2-benzisothiazol-3-ylmethyl)-6-methyl-2-oxo-2,3-dihydro-imidazo[4,5-c]pyridin-1-yl]-3-phenyl-propionic acid], for which the IC50 is 4 nM.

In the case of `Cc1cc(C)c2c(Cn3c(=O)n([C@H](CC(=O)O)c4ccccc4)c4ccncc43)nsc2c1` [(R)-3-[3-(4,6-Dimethyl-benzo[d]isothiazol-3-ylmethyl)-2-oxo-2,3-dihydro-imidazo[4,5-c]pyridin-1-yl]-3-phenyl-propionic acid], inhibition was half-maximal at 11.2 nM (IC50).

A word on the IC50: it is the midpoint of a concentration-inhibition curve. Lower therefore signals inhibition by little substance.
